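A five-concentration, 48-hour dose response in 96-well plates underlies each endpoint, interpolated linearly between surrounding concentrations. The concentration for 50% growth inhibition is given as GI50. TGI: total growth inhibition.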
Assays:
Assay in all cases: NCI anticancer screen, dose series, 48 h
NCI-H23 lung = system: NCI-H23 lung
SW-620 colon = system: SW-620 colon
SF-268 CNS = system: SF-268 CNS
HOP-92 NSCLC = system: HOP-92 NSCLC
MOLT-4 leukemia = system: MOLT-4 leukemia
U251 CNS = system: U251 CNS
786-0 renal = system: 786-0 renal
TK-10 renal = system: TK-10 renal
MDA-MB-435 = system: MDA-MB-435
CAKI-1 renal = system: CAKI-1 renal
CCRF-CEM leukemia = system: CCRF-CEM leukemia

Compound | TGI (NCI-H23 lung) | TGI (SW-620 colon) | TGI (SF-268 CNS) | TGI (HOP-92 NSCLC) | TGI (MOLT-4 leukemia) | TGI (U251 CNS) | TGI (786-0 renal) | TGI (TK-10 renal) | TGI (MDA-MB-435) | TGI (CAKI-1 renal) | TGI (CCRF-CEM leukemia) | GI50 (NCI-H23 lung) | GI50 (SW-620 colon) | GI50 (SF-268 CNS) | GI50 (MOLT-4 leukemia) | GI50 (U251 CNS) | GI50 (CCRF-CEM leukemia) | GI50 (TK-10 renal) | GI50 (MDA-MB-435) | GI50 (CAKI-1 renal)
O=C(c1ccccc1)C1C(c2ccccc2[N+](=O)[O-])N1C1CCCCC1 (centres undefined) | 37.4 µM | > 26.6 µM | 38.3 µM | 16.2 µM | 7.79 µM | 18.5 µM | 5.05 µM | 7.4 µM | 10.8 µM | 9.5 µM |  |  |  |  |  |  |  |  |  | 
CCOC(=O)/C(=C/c1cn(C(C)=O)c2ccccc12)P(=O)(OC)OC | > 100 µM | > 100 µM |  | > 100 µM | 74.6 µM | > 100 µM |  | > 100 µM | > 100 µM | > 100 µM | 68.1 µM |  |  |  |  |  |  |  |  | 
O=[N+]([O-])/C=C/c1cn(CCCCCCCCn2cc(/C=C/[N+](=O)[O-])c3ccccc32)c2ccccc12 | > 10 µM | > 10 µM | > 10 µM | > 10 µM | > 10 µM |  | > 10 µM | > 10 µM | > 10 µM | > 10 µM | > 10 µM |  |  |  |  |  |  |  |  | 
CC(C)(C)[C@H]1NC(=O)CN1C(=O)OCc1ccccc1 | > 100 µM | > 100 µM | > 100 µM | 31.9 µM | > 100 µM | > 100 µM | > 100 µM | > 100 µM | > 100 µM |  | > 100 µM |  |  |  |  |  |  |  |  | 
COc1ccc(C2CC(c3cccc(Nc4ccncc4)c3)=NN2c2ccccc2)cc1 (centres undefined) | 3.87 µM | 3.43 µM | 9.98 µM |  | 4.63 µM | 3.8 µM |  | 4.43 µM | 3.49 µM | 3.18 µM | 11.6 µM | 1880 nM | 1810 nM | 2910 nM | 2070 nM | 1940 nM | 3.44 µM | 2120 nM | 1780 nM | 1660 nM
O=C(Nc1nnc(-c2ccccc2)o1)C(SC(=S)N1CCCC1)c1ccccc1 (centres undefined) | 79.7 µM | > 100 µM |  |  | > 100 µM | > 100 µM | > 100 µM | > 100 µM | > 100 µM | > 100 µM | 71.4 µM |  |  |  |  |  |  |  |  | 
CCOC(=O)CCC(NC(=O)c1ccc(NCc2ccc3nc(OC)c(OC)nc3c2)c2ccccc12)C(=O)OCC (centres undefined) | > 100 µM | > 100 µM | > 100 µM | 97.7 µM | > 100 µM | > 100 µM | > 100 µM | > 100 µM | > 100 µM | > 100 µM |  |  |  |  |  |  |  |  |  | 
CC1CC[C@@]2(OC1)OC1C[C@H]3[C@@H]4CC=C5C[C@@H](OC6OC(CO)C(OC7OC(CO)C(O)C(O)C7O)C(O)C6OC6OC(C)C(O)C(O)C6O)CC[C@]5(C)[C@H]4CC[C@]3(C)C1[C@@H]2C (some centres undefined) | 2.57 µM | 1.51 µM | 1.2 µM | 2.12 µM |  | 0.923 µM | 0.88 µM | 3.73 µM | 1.29 µM | 2.71 µM | 1.48 µM |  |  |  |  |  |  |  |  | 
C[N+](C)([O-])C12CC3CC(CC(C3)C1)C2 | > 100 µM | > 100 µM | > 100 µM |  | > 100 µM | > 100 µM | > 100 µM | 88 µM | > 100 µM | > 100 µM | > 100 µM |  |  |  |  |  |  |  |  | 
CC1CC(C)(C)CC(OCCN2CCCCC2)(c2ccccc2)C1 (centres undefined) | 32.6 µM | 32.5 µM | 23.9 µM | 21.7 µM |  | 25.5 µM | 22.6 µM | 26.7 µM | 24.7 µM | 25.5 µM | 24.9 µM |  |  |  |  |  |  |  |  | 
O=C(O)C1C2OC(C(Br)C2Br)C1C(=O)O (centres undefined) | > 100 µM | > 100 µM | > 100 µM |  | > 100 µM | > 100 µM | > 100 µM | > 100 µM | > 100 µM | > 100 µM |  |  |  |  |  |  |  |  |  | 
CC(=O)CCN1CC2CN=NC2(C#N)C1 (centres undefined) | > 100 µM | > 55.6 µM | > 100 µM | > 76.3 µM | > 56.7 µM | > 100 µM | > 100 µM | > 100 µM | > 100 µM |  | > 61 µM |  |  |  |  |  |  |  |  | 
COC1=C(OC)C(=O)C(Cc2c(-c3ccccc3)nc3sc(Cl)cn23)=C(C)C1=O | 35.8 µM | 50.6 µM | 41.2 µM |  |  | 40.1 µM | 41.8 µM | 45 µM | 33.1 µM | 50.3 µM | 53 µM |  |  |  |  |  |  |  |  | 
Cc1cc(C)n(C(C)(C(=O)Cc2ccccc2)n2nc(C)cc2C)n1 | > 100 µM | > 100 µM | > 100 µM | > 100 µM | > 100 µM | > 100 µM | > 100 µM | > 100 µM | > 100 µM | > 100 µM |  |  |  |  |  |  |  |  |  | 
Nc1ccc2c3c1cccc3c(=O)n1c3ccc(Cc4ccc5c(c4)nc4c6ccc(N)c7cccc(c(=O)n54)c76)cc3nc21 | > 100 µM | > 100 µM |  | > 100 µM | > 100 µM | > 100 µM | > 100 µM |  | > 100 µM | > 100 µM | > 100 µM |  |  |  |  |  |  |  |  | 
COC(=O)c1c2c(cc3c1CC1(Cc4cc5c(cc4C1)CCCC5)C3)CCCC2 | > 100 µM |  |  | > 100 µM | > 100 µM | > 100 µM | > 100 µM | > 100 µM | > 100 µM |  | > 100 µM |  |  |  |  |  |  |  |  | 
CCOC(=O)CC1C(C(=O)OCC)=Cn2c([nH]c3cccc4cccc2c43)=C1C(=O)OCC (centres undefined) | > 100 µM | > 100 µM |  | > 100 µM | > 100 µM | > 100 µM | > 100 µM | > 100 µM | > 100 µM | > 100 µM | > 100 µM |  |  |  |  |  |  |  |  | 
Nc1c(-c2ccccc2)c2ccc([N+](=O)[O-])cc2c(=O)n1-c1cccc(C(=O)O)c1 | > 100 µM | > 100 µM | > 100 µM |  | > 100 µM | > 100 µM |  | > 100 µM | > 100 µM | > 100 µM | > 100 µM |  |  |  |  |  |  |  |  | 
C[C@]12CC[C@H]3[C@@H](CCC4=C/C(=N/OCCN5CCCCC5)CC[C@@]43C)[C@@H]1CC[C@@H]2O | 30.4 µM | 32.7 µM |  |  | 20.9 µM | 27.1 µM | > 100 µM | 35 µM | 20.2 µM | 55.3 µM | 26.9 µM |  |  |  |  |  |  |  |  | 
Cc1cc(S(=O)(=O)NC2=NCc3c(F)cccc3N2)c(S)cc1Cl |  | > 100 µM | > 100 µM | > 100 µM | > 100 µM | > 100 µM | > 100 µM | > 100 µM | > 100 µM | > 100 µM | > 100 µM |  |  |  |  |  |  |  |  | 

From PubChem BioAssay (NCI)
